{
  "source": "patent US20220111034A1",
  "about": "“VIRUS COMPOSITIONS” (priority 2019, published 2022)",
  "key": {"[1]": {"test_system": "JAM-A", "assay": "Biolayer interferometry (BLI) of JAM-A-reovirus interactions", "format": "binding", "conditions": "1 mM free glycan", "experimental": "Virus binding to JAM-A was measured on a BLItz® (Pall ForteBio) biolayer interferometer equipped with a Ni2+-NTA biosensor (Pall ForteBio). After loading the chip in a 10 mM NiCl2 solution for 2 min and running an initial baseline step in milliQ water (1 min), JAM-A (0.2 mg mL^−1) was immobilized on the exposed Ni^2+ ions via its C-terminal His6 tag for 5 min until the binding signal reached a plateau (complete saturation of the biosensor). Binding of viral particles (T3SA+, T3SA− or ISVP; at 16 nM) in the absence or presence of 1 mM Neu5Ac was measured during a 10 min association step after another baseline step (virus buffer for 1 min). Dissociation was monitored directly after the association step for 10 min during which the virus solution was exchanged with virus buffer. Chip can be regenerated several times by exposing the biosensor to 10 mM Glycine pH 1.7 followed by a neutralization buffer (Kinetics Buffer). The resulting sensorgram (binding over time) was processed and fitted with a nonlinear regression approach using an association and then dissociation fit provided by GraphPad Prism. Virus concentration and time at which dissociation was initiated were constrained to constant values of 16 nM and 17 min, respectively. From that fit, koff and kon were extracted and KD was calculated."}, "[2]": {"test_system": "CHO cells", "assay": "FD-based AFM with virus-functionalized tip on living CHO cells (cocultured with Lec2)", "format": "cell-based", "conditions": "1 mM, same area rescanned, FIG. 14i-l", "experimental": "NHS-PEG27-acetal linkers were used to functionalize AFM tips as described (Gruber. Crosslinkers and Protocols for AFM Tip Functionalization. https://wwwjku.at/institut-fuer-biophysik/forschung/linked, 2018; Wildling et al. Linking of sensor molecules with amino groups to aminofunctionalized AFM tips. Bioconjug. Chem. 2011, vol. 22, 1239-1248). AFM tips (PFQNM-LC and MSCT probes, Bruker) were immersed in chloroform for 10 min, rinsed with ethanol, dried with a stream of filtered nitrogen, cleaned for 10 min using an ultraviolet radiation and ozone (UV-0) cleaner (Jetlight), and immersed overnight in an ethanolamine solution (3.3 g of ethanolamine hydrochloride in 6.6 mL of DMSO). […]\nCorrelative images were acquired on an AFM (Bioscope Catalyst and Bioscope Resolve, Bruker) operated in the PeakForce QNM mode (Nanoscope software v9.2) to conduct FD-based AFM and coupled to an inverted epifluorescence microscope (Zeiss Observer Z.1) as described (Newton et al. 2017, supra; Knoops et al. Specific Interactions Measured by AFM on Living Cells between Peroxiredoxin-5 and TLR4: Relevance for Mechanisms of Innate Immunity. Cell chemical biology 2018, vol. 25, 550-559, e553). […] Overview images of cell surfaces (20-30 μm^2) were recorded at imaging forces of ˜500 pN using PFQNM-LC probes (Bruker) having tip lengths of 17 μm, tip radii of 65 nm, and opening angles of 15°. […]"}},
  "data": [
    {"molecule": "CC(=O)N[C@H]1[C@H]([C@H](O)[C@H](O)CO)OC(O)(C(=O)O)C[C@@H]1O", "note": "(some centres unmarked) [Neu5Ac, N-acetylneuraminic acid]", "values": [
      {"measurement": "influence on T3SA− binding to JAM-A", "setting": "[1]", "value": "had no influence"},
      {"measurement": "adhesion events of T3SA+ after injection of blocking glycan", "setting": "[2]", "value": "significant reduction of adhesion events"}
    ]}
  ]
}
